Results: patent US7314857B2, “Synergistic antimicrobial compositions and methods of inhibiting biofilm formation” (Kane Biotech Inc., priority 2003, dated 2008)

What was measured:
Assay in all cases: Growth on urinary catheter segments coated with TDMAC plus composition (roll plate)
Pseudomonas aeruginosa = type: cell-based
Method: (§1) Clear vinyl catheter segments (3 cm sections of tubing) that had been preheated (incubated in sterile water at 65° C. overnight) were coated in 5% TDMAC in ethanol for an hour at room temperature. The catheter segments were vigorously washed with sterile water and air-dried. The segments were then immersed in ethanol and coating solution (1000 μg OT+100 μg PS+100 μg EDTA/ml of water) for 2 hours at −20° C. In addition, a few catheter segments were immersed in coating solution alone for 2 hours at −20° C. All the segments were air dried and immersed in a tryptic soy broth culture of Pseudomonas aeruginosa, Klebsiella pneumoniae and Staphylococcus epidermidis for 3 hours at 37° C. The catheter segments were washed 3 times in 3 changes of sterile saline and rolled on tryptic soy agar plates. The plates were incubated overnight at 37° C. and the colonies were counted.

Klebsiella pneumoniae = type: cell-based
Method: as §1

Staph. epidermidis = type: cell-based, Staphylococcus epidermidis
Method: as §1

[1] = coated vinyl catheter segments vs uncoated control, coating at −20° C.
[2] = coated vinyl catheter segments, coating 2 hours at −20° C., 3 hours in culture at 37° C., CFU per millimeter of catheter tubing

CCCCCCCCCCCC[N+](C)(CCCCCCCCCCCC)CCCCCCCCCCCC.[Cl-] [TDMAC, Tridodecyl Methyl Ammonium Chloride]
% Inhibition (Pseudomonas aeruginosa; [1]): 12%
Viable Counts (CFU/mM) (Pseudomonas aeruginosa; [2]): 18.8 ± 4.6 CFU/mM
% Inhibition (Klebsiella pneumoniae; [1]): 0%
Viable Counts (CFU/mM) (Klebsiella pneumoniae; [2]): 4.3 ± 1.3 CFU/mM
% Inhibition (Staph. epidermidis; [1]): 0%
Viable Counts (CFU/mM) (Staph. epidermidis; [2]): 20.4 ± 7.7 CFU/mM
